In assay [1] the test system is Pparg and Cebpa genes in 3T3-L1 cells. Description: qRT-PCR of adipogenic genes during differentiation. Type of assay: cell-based. The note with it: 3T3-L1 during differentiation; KD025 5 μM, CX-4945 10 μM, Y-27632 10 μM. How it is done: (§1) The preadipocyte 3T3-L1 cell line was kindly provided by Dr. Hyun-Sung Park (University of Seoul) and cultured in Dulbecco’s modified Eagle’s medium (DMEM, Sigma-Aldrich) supplied with 10% heat-inactivated newborn calf serum (Invitrogen, CA, USA), 100 units/mL penicillin, and 100 µg/mL streptomycin (Cellgro, VA, USA). The cells were maintained in an incubator at 37 °C and 5% CO2. To initiate differentiation, the cells were incubated for additional days after 100% confluence and then further incubated in a medium containing fetal bovine serum (FBS) and a differentiation cocktail (DMI, 1 μM dexamethasone, 0.5 mM 3-isobutyl-1-methylxanthine, and 5 μg/mL insulin) as previously described. In brief, at day 3, the culture medium was replaced with DMEM/10%FBS containing 5 µg/mL insulin. Then, growth medium was changed every 2 days.
Total RNA was extracted using easy-BLUE (iNtRON Biotechnology, Dajeon, Korea) in accordance with the manufacturer’s protocol. cDNA was synthesized from 2 µg of total RNA using TOPscript^TM Drymix Kit (Enzynomics, Dajeon, Korea). qRT-PCR was performed using TB Green ® Premix Ex Taq^TM II (Tli RNAse H Plus) (TaKaRa, Japan) with Applied Biosystems QuantStudio™ 1 Real-Time PCR System (Thermo Fisher Scientific, Waltham, MA, USA). Gene expression data were normalized based on the use of the same amount of total RNA samples. The relative fold change of gene expression was calculated using the ∆Ct method.
(In general: Quantitative PCR measures a nucleic acid by following its amplification.)

The subject of another assay is 3T3-L1 cells. Description: Adipocyte differentiation, Oil Red O staining. Type of assay: cell-based. The conditions noted are these: for lipid accumulation / adipocyte differentiation (ORO staining): 3T3-L1, treated during differentiation; for lipid accumulation / adipocyte differentiation (ORO staining) / adipogenesis (ORO staining): stained at day 8; for quantity of lipid droplets (ORO staining): CX-4945 5 μM, KD025 3 μM. The method, then:
as §1
Lipid droplets of cells were stained using ORO (Sigma-Aldrich, MA, USA). In brief, the cells were washed with phosphate buffered saline and incubated with 10% formalin for 5 min. The cells were then fixed with the same volume of fresh formalin for at least 1 h. Subsequently, the cells were washed with 60% isopropanol, air dried completely, and then stained with ORO working solution (1% ORO/isopropanol: distilled water = 3:2). The stained cells were washed with water four times. Cell images were taken by a microscope (Nikon Eclipse TS100-F, Japan). Then, 100% isopropanol was added and incubated for 10 min to quantify the intensity of ORO. The quantity of extracted dye was obtained by obtaining absorbance at 540 nm in the Synergy H1 hybrid reader (BioTek, VT, USA).

For the next assay, the target named is ROCK2 (Homo sapiens, UniProt O75116). Description: KINOMEscan Kd determination. The conditions noted are these: 11-point concentrations, duplicate.
Sequence of ROCK2 (O75116 whole entry): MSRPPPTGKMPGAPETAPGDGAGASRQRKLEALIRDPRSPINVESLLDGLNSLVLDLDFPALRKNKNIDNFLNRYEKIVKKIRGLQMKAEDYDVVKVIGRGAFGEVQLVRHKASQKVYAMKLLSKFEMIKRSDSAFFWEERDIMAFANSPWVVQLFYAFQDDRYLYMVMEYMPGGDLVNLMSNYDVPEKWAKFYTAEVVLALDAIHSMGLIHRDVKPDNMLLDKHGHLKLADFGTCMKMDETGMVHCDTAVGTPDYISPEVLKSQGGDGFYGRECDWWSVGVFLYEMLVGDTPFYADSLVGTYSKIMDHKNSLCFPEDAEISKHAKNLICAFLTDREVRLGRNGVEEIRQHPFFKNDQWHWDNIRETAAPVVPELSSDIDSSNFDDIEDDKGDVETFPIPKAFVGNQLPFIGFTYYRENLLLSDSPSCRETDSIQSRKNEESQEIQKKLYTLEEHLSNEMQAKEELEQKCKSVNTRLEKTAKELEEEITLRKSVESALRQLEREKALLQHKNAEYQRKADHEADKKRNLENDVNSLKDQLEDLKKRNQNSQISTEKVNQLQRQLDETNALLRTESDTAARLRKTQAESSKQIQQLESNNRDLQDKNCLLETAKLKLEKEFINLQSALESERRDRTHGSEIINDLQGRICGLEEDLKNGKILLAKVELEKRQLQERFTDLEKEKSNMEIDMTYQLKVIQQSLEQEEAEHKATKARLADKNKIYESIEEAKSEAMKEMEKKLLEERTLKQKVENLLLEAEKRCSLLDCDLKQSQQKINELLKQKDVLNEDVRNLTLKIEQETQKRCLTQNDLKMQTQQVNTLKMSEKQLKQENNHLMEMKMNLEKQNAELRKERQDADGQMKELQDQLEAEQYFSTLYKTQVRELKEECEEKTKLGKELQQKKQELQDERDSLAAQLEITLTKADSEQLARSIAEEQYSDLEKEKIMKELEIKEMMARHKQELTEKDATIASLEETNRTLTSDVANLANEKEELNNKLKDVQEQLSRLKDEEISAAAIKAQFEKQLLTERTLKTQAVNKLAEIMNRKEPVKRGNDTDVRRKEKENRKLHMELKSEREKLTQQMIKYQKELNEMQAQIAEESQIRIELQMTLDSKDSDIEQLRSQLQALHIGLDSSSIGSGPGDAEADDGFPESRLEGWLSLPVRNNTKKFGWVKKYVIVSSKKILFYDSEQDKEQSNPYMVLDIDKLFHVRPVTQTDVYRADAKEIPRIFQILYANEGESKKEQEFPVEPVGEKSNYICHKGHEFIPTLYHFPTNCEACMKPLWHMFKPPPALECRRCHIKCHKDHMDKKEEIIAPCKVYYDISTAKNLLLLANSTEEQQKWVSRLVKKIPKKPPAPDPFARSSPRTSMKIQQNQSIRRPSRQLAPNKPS

“Also recorded” adds a separate entry of the source.

Experimental for ROCK2: Dissociation constant (Kd) was measured using KINOMEscan^TM profiling service. […] The binding activity of inhibitors was monitored by measuring remained kinase-ligand binding activity. Kd was calculated based on the nonlinear least-square fit model by using the “drm” function of drc package [54] in R software (version 3.6.1).

In the case of `O=C(O)c1ccc2c(c1)nc(Nc1cccc(Cl)c1)c1ccncc12` [CX-4945], in assay [1], the “expression of Pparg and Cebpa genes” value is given as “markedly suppressed”. Further, the “lipid accumulation / adipocyte differentiation (ORO staining)” value with 3T3-L1 cells is listed as “suppressed the generation of lipid droplets; also recorded: significantly reduced the amount of accumulated fat in a dose-dependent manner”. Further, the “quantity of lipid droplets (ORO staining)” value is reported as “ineffective; also recorded: lesser effect” in the assay with 3T3-L1 cells (3T3-L1, treated during the early (days 0–1) or late (days 5–8) stage) and “acted specifically in the middle stage; also recorded: significantly reduced” with 3T3-L1 cells (3T3-L1, treated during the intermediate stage (days 1–3)). Moreover, the Kd result on ROCK2 is on record as “no selective interaction; also recorded: did not show such cross-reactivity”.
As for `O=S(=O)(c1cccc2cnccc12)N1CCCNCC1` [fasudil], the “lipid accumulation / adipocyte differentiation (ORO staining)” value with 3T3-L1 cells is “does not”; in the assay on 3T3-L1 cells (listed as Fasudil), “no significant effect”.
Consider `CN(C)c1nc2c(Br)c(Br)c(Br)c(Br)c2[nH]1` [DMAT, 2-dimethylamino-4,5,6,7-tetrabromo-1H-benzimidazole], for which the “adipogenesis (ORO staining)” value in the assay on 3T3-L1 cells (3T3-L1, 5 μM) is “promoting reversely the differentiation”; in the assay with 3T3-L1 cells (3T3-L1, 30 μM), “inhibited the adipogenesis”. Besides, the “lipid accumulation / adipocyte differentiation (ORO staining)” value with 3T3-L1 cells is “inhibited effectively”.
Take `C[C@@H](N)[C@H]1CC[C@H](C(=O)Nc2ccncc2)CC1` [Y-27632]: the “expression of Pparg and Cebpa genes” value in assay [1] is reported as “increased; also recorded: did not suppress”.
Take `O=C1c2ccc(O)c(O)c2C(=O)c2c(O)ccc(O)c21` [quinalizarin, 1,2,5,8-tetrahydroxyanthraquinone]: the “adipogenesis (ORO staining)” value in the assay with 3T3-L1 cells (3T3-L1, 5, 10, and 30 μM) was “suppressed adipogenesis”. Further, the “lipid accumulation / adipocyte differentiation (ORO staining)” value in the assay with 3T3-L1 cells is given as “inhibited effectively”.
